Reference: patent US4298734A, “Diazaheterocyclopurines and triazolopyrimidines” (Mead Johnson & Company, priority 1979, dated 1981)

Experiments:
[1] = system: methacholine-induced bronchospasm in the rat; assay: Methacholine-induced bronchospasm (pulmonary ventilation pressure) in anesthetized rat; format: in vivo; conditions: intraduodenal; for Methacholine Bronchospasm, ED50 / ED50: 50% inhibition of bronchospasm; for inhibition in vivo at 10 mg/kg: read-out: Methacholine Bronchospasm, percent inhibition; for Methacholine Bronchospasm, percent inhibition: dose 30 mg./kg.; for inhibition in vivo at 10 mg/kg / Methacholine Bronchospasm, inactive at dose: dose 10 mg./kg.
From the text: Brochodilator activity in vivo (Table XI, column 6) was estimated by determining the dose of test compound required to inhibit methacholine-induced brochospasm in the rat. […] For this test, pulmonary ventilation pressure (PVP) was the parameter measured using anesthetized animals.

[2] = system: passive cutaneous anaphylaxis reaction (PCA) in the rat; assay: Passive cutaneous anaphylaxis reaction (PCA) in the rat; format: in vivo; design: key to PCA, inactive at dose: I: inactive at the specified dose; conditions: for PCA, ED50 / ED50: oral; for inhibition in vivo at 50 mg/kg: oral dose 50 mg./kg.
Experimental: Antiallergy activity in terms of ability to inhibit the immediate hypersensitivity reaction was measured by means of the passive cutaneous anaphylaxis reaction (PCA) in the rat (Table XI, column 7). The animals were passively sensitized by the intradermal injection of rat reagenic antiserum at various locations on the shaved back skin and 48 hours later the test drug was administered. This was followed by challenge at a predetermined interval, usually 15 minutes, by intravenous injection of egg albumin and Evans' blue dye. The dermal reaction at the sensitized site was evaluated and scored by measuring the diameter of the spot generated at the sensitized intradermal injection site. The values reported in the table are either ED50 values for the test compound in terms of mg./kg. of body weight administered orally, or percent inhibition of the dose specified in parentheses.

[3] = system: rats actively sensitized with egg albumin and B. pertussis vaccine; assay: Allergic bronchospasm in rats actively sensitized with egg albumin; format: in vivo; conditions: rat, oral, egg albumin challenge, PVP; for ED50: Bordetella pertussis
Experimental: Antiallergy/bronchodilator studies (Table XI, column 8) were also conducted using rats which were actively sensitized with egg albumin and B. pertussis vaccine as for preparation of the reagenic antisera in the PCA test. Fifteen days following sensitization, the animals were prepared for measurement of PVP as for the methacholine-induced bronchospasm test, and changes in PVP in response to a standardized challenge of egg albumin following treatment with test drug were measured. The values reported in the table are ED50 values in terms of mg./kg. of body weight for the test compound administered orally.

[4] = Anticholinergic action mediating bronchodilator activity
[5] = Anti-allergy and bronchodilator action compared with aminophylline
[6] = Maximum non-toxic dose in mice; conditions: mouse, in vivo, po; per os in mice
From the text: Compounds of Formula I and Formula II are useful as bronchodilators, antiallergy agents in the inhibition of the immediate hypersensitivity reaction, as vasodilators, and as inhibitors of the enzyme phosphodiesterase. The invention includes processes for the treatment of mammals requiring bronchodilation, vasodilation, or having allergy with a non-toxic bronchodilator effective, vasodilator effective, or immediate hypersensitivity reaction inhibiting dose of one of these compounds. The compounds may be administered orally, parenterally, topically by inhalation, or rectally. Effective doses range from about 0.03 mg./kg. of body weight up to the maximum non-toxic dose which can be administered without undue side effects. Maximum non-toxic doses can be determined by standard pharmacologic techniques using mice. The value for the substance of Procedure 3 or 4, a preferred compound for anti-asthma use, is about 250 mg./kg. of body weight per os in mice.

[7] = read-out: PCA, percent inhibition
[8] = oral dose 25 mg./kg., read-out: PCA, percent inhibition
[9] = oral dose 10 mg./kg., read-out: PCA, percent inhibition

CC1N=C2N(Cc3ccc(Cl)cc3)c3nc[nH]c3C(=O)N2C1C (stereo not drawn) [106(cis)]
Methacholine Bronchospasm, ED50 [1]: 3.0 mg/kg
PCA, ED50 [2]: 28.5 mg/kg

CC1CN2C(=O)c3[nH]cnc3N(Cc3ccc(Cl)cc3)C2=N1 (racemic) [Procedure 100]
Allergic Bronchospasm, ED50 [3]: 1.5 mg/kg
Methacholine Bronchospasm, ED50 [1]: 2.1 mg/kg
PCA, ED50 [2]: 10.6 mg/kg

O=C1c2[nH]cnc2N(Cc2cccc(Cl)c2)C2=NCCN12 [Procedure 5]
inhibition in vivo at 10 mg/kg [1]: 64%
inhibition in vivo at 50 mg/kg [2, 7]: 43%

Cn1c(=O)c2[nH]cnc2n(C)c1=O [Theophylline, reference compound]
ED50 [1]: 19.2 mg/kg
ED50 [2]: 41.5 mg/kg

CC(C)c1nc2c([nH]1)C(=O)N1CCN=C1N2CCOc1ccccc1 [Procedure 108]
ED50 [1]: 4 mg/kg

O=C1c2[nH]cnc2N(CCOc2ccccc2)C2=NCCN12 [Procedure 12]
ED50 [1]: 2.3 mg/kg
anticholinergic action [4]: anticholinergic action of a type which mediates improved bronchodilator activity
inhibition in vivo at 25 mg/kg [2, 8]: 27%

Cc1nc2c(n1C)C(=O)N1CCN=C1N2Cc1ccc(Cl)cc1 [Procedure 117]
ED50 [1]: 5.7 mg/kg

S=C1c2[nH]cnc2N(Cc2ccc(Cl)cc2)C2=NCCN12 [Procedure 75]
Methacholine Bronchospasm, percent inhibition [1]: 21%
PCA, inactive at dose ([2]; oral dose 25 mg./kg.): I

CCCCCCCCN1C2=NCCN2C(=O)c2[nH]c(C)nc21 [Procedure 55]
inhibition in vivo at 25 mg/kg [2, 8]: 34.9%

O=C1c2[nH]cnc2N(Cc2ccccc2Cl)C2=NCCN12 [Procedure 6]
inhibition in vivo at 50 mg/kg [2, 7]: 25%

CC1(C)CN2C(=O)c3nc[nH]c3N(Cc3ccc(Cl)cc3)C2=N1 [Procedure 104]
ED50 [3]: 3 mg/kg
anti-allergy and bronchodilator action relative to aminophylline [5]: more potent than aminophylline in anti-allergy and bronchodilator action
ED50 [1]: 6.3 mg/kg
ED50 [2]: 42.8 mg/kg

Cc1nc2c([nH]1)C(=O)N1CC(C)N=C1N2Cc1ccc(Cl)cc1 (racemic) [Procedure 101]
Allergic Bronchospasm, ED50 [3]: 1.2 mg/kg
Methacholine Bronchospasm, ED50 [1]: 1.00 mg/kg
PCA, ED50 [2]: 30.2 mg/kg

O=c1c2[nH]cnc2n(Cc2ccc(Cl)cc2)c2nccn12 [Procedure 124]
Methacholine Bronchospasm, ED50 [1]: 8.1 mg/kg

CCCCCCCCN1C2=NCCN2C(=O)c2[nH]cnc21 [Procedure 54]
PCA, inactive at dose ([2]; oral dose 25 mg./kg.): I

CC1N=C2N(Cc3ccc(Cl)cc3)c3nc[nH]c3C(=O)N2C1C (mixture of isomers) [106(mixed)]
Allergic Bronchospasm, ED50 [3]: 3.51 mg/kg
Methacholine Bronchospasm, ED50 [1]: 3.7 mg/kg
PCA, ED50 [2]: 20.3 mg/kg

Cn1cnc2c1C(=O)N1CCN=C1N2Cc1ccc(Cl)cc1 [Procedure 67]
Methacholine Bronchospasm, ED50 [1]: 8.8 mg/kg
PCA, percent inhibition ([2]; oral dose 25 mg./kg.): 26%

COc1ccc(CCN2C3=NCCN3C(=O)c3[nH]nnc32)cc1OC [Procedure 26]
inhibition in vivo at 10 mg/kg [2, 9]: 41%

O=C1c2[nH]nnc2N(Cc2ccc(Cl)cc2)C2=NCCN12 [Procedure 25]
PCA, inactive at dose ([2]; oral dose 10 mg./kg.): I

O=C1c2[nH]cnc2N(Cc2ccc(F)cc2)C2=NCCN12 [Procedure 8]
inhibition in vivo at 10 mg/kg [1]: 55.5%
inhibition in vivo at 10 mg/kg [2, 9]: 29%

COc1ccc(CCN2C3=NCCN3C(=O)c3[nH]cnc32)cc1OC [Procedure 11]
inhibition in vivo at 10 mg/kg [2, 9]: 25%

CC(C)CN1C2=NCCN2C(=O)c2c1ncn2CCOc1ccccc1 [Procedure 39]
inhibition in vivo at 10 mg/kg [1]: 34.7%
PCA, inactive at dose ([2]; oral dose 25 mg./kg.): I

CC(C)CN1C2=NCCN2C(=O)c2[nH]cnc21 [Procedure 13]
inhibition in vivo at 10 mg/kg [1]: 63%
PCA, inactive at dose ([2]; oral dose 25 mg./kg.): I

Cn1c(Br)nc2c1C(=O)N1CCN=C1N2Cc1ccc(Cl)cc1 [Procedure 46]
ED50 [1]: > 30 mg/kg

CC(C)CN1C2=NC(C)CN2C(=O)c2[nH]cnc21 (stereo not shown) [Procedure 109]
ED50 [1]: 4.6 mg/kg

Cc1nc2c([nH]1)C(=O)N1CCN=C1N2CCOc1ccccc1 [Procedure 58]
ED50 [1]: 0.81 mg/kg
anticholinergic action [4]: anticholinergic action of a type which mediates improved bronchodilator activity
inhibition in vivo at 25 mg/kg [2, 8]: 29%

CC1N=C2N(Cc3ccc(Cl)cc3)c3nc[nH]c3C(=O)N2C1C (stereo not drawn) [106(trans)]
Methacholine Bronchospasm, ED50 [1]: 5.0 mg/kg
PCA, ED50 [2]: 35.5 mg/kg

O=C1c2c(ncn2Cc2ccc(F)cc2)N(Cc2ccc(F)cc2)C2=NCCN12 [Procedure 44]
inhibition in vivo at 10 mg/kg [1]: 0%
PCA, inactive at dose ([2]; oral dose 10 mg./kg.): I

O=C1c2[nH]nnc2N(Cc2ccc(Cl)c(Cl)c2)C2=NCCN12 [Procedure 28]
PCA, inactive at dose ([2]; oral dose 10 mg./kg.): I

CC(C)c1nc2c([nH]1)C(=O)N1CCN=C1N2Cc1ccccc1Cl [Procedure 16]
PCA, inactive at dose ([2]; oral dose 25 mg./kg.): I

O=C1c2[nH]c(Br)nc2N(Cc2ccc(Cl)cc2)C2=NCCN12 [Procedure 17]
inhibition in vivo at 25 mg/kg [2, 8]: 34%

Cc1nc2c([nH]1)C(=O)N1CCN=C1N2Cc1ccc(Cl)cc1 [Procedure 15]
ED50 [1]: 1.79 mg/kg
inhibition in vivo at 30 mg/kg ([2]; oral dose 30 mg./kg., read-out: PCA, percent inhibition): 40%

O=C1c2[nH]cnc2N(CC2CCCCC2)C2=NCCN12 [Procedure 59]
inhibition in vivo at 10 mg/kg [1]: 45.8%
inhibition in vivo at 25 mg/kg [2, 8]: 29%

CCCCn1cnc2c1C(=O)N1CCN=C1N2Cc1ccc(Cl)cc1 [Procedure 24]
inhibition in vivo at 10 mg/kg [1]: 16%
PCA, inactive at dose ([2]; oral dose 10 mg./kg.): I

Cc1nc2c([nH]1)C(=O)N1CCN=C1N2CC(C)C [Procedure 63]
ED50 [3]: 5.4 mg/kg
ED50 [1]: 3.3 mg/kg
ED50 [2]: 33.9 mg/kg

O=C1c2[nH]nnc2N(CCOc2ccccc2)C2=NCCN12 [Procedure 74]
Methacholine Bronchospasm, inactive at dose [1]: I
PCA, inactive at dose ([2]; oral dose 25 mg./kg.): I

O=C1c2[nH]cnc2N(Cc2ccc(Cl)cc2)C2=NCCN12 [Procedure 3]
MTD [6]: ~250 mg/kg
ED50 [3]: 2.9 mg/kg
ED50 [1]: 5.2 mg/kg
ED50 [2]: 33.7 mg/kg

O=C1c2[nH]cnc2N(CCOc2ccc(Cl)cc2)C2=NCCN12 [Procedure 57]
inhibition in vivo at 10 mg/kg [1]: 66%
inhibition in vivo at 25 mg/kg [2, 8]: 31.7%

O=C1c2[nH]cnc2N(CCc2ccc(Cl)cc2)C2=NCCN12 [Procedure 60]
Methacholine Bronchospasm, inactive at dose [1]: I
PCA, inactive at dose ([2]; oral dose 25 mg./kg.): I

O=C1c2[nH]cnc2N(Cc2ccc(Cl)c(Cl)c2)C2=NCCN12 [Procedure 7]
PCA, inactive at dose ([2]; oral dose 25 mg./kg.): I

O=C1c2[nH]cnc2N(Cc2ccccn2)C2=NCCN12 [Procedure 10]
inhibition in vivo at 25 mg/kg [2, 8]: 40%

N=C1c2[nH]cnc2N(Cc2ccc(Cl)cc2)C2=NCCN12 [Procedure 77]
Methacholine Bronchospasm, percent inhibition [1]: 22%

CCc1nc2c([nH]1)C(=O)N1CCN=C1N2Cc1ccc(Cl)cc1 [Procedure 14]
inhibition in vivo at 10 mg/kg [1]: 26%
inhibition in vivo at 50 mg/kg [2, 7]: 29%

CC(C)C(=O)N1C2=NCCN2C(=O)c2[nH]c(C(C)C)nc21 [Procedure 20]
inhibition in vivo at 25 mg/kg [2, 8]: 46%

CC1CN2C(=O)c3c(ncn3C)N(Cc3ccc(Cl)cc3)C2=N1 (racemic) [Procedure 102]
Allergic Bronchospasm, ED50 [3]: 3.4 mg/kg
Methacholine Bronchospasm, ED50 [1]: 1.1 mg/kg
PCA, ED50 [2]: 28.9 mg/kg

O=C1c2[nH]cnc2N(Cc2ccccc2)C2=NCCN12 [Procedure 23]
PCA, inactive at dose ([2]; oral dose 25 mg./kg.): I

CCCCCCCCN1C2=NCCN2C(=O)c2[nH]c(C(C)C)nc21 [Procedure 56]
inhibition in vivo at 25 mg/kg [2, 8]: 25%

COc1ccccc1CN1C2=NCCN2C(=O)c2[nH]cnc21 [Procedure 9]
PCA, inactive at dose ([2]; oral dose 10 mg./kg.): I

O=C1c2[nH]nnc2N(Cc2ccc(F)cc2)C2=NCCN12 [Procedure 27]
inhibition in vivo at 10 mg/kg [1]: 30%
ED50 [2]: 17.7 mg/kg

O=C1c2[nH]cnc2N(CCCc2ccccc2)C2=NCCN12 [Procedure 62]
inhibition in vivo at 10 mg/kg [1]: 22%
PCA, inactive at dose ([2]; oral dose 25 mg./kg.): I
